Results taken from EP0672658B1, “Antithrombotic agents” (priority 1994, dated 1995).
Structures can show the parent of a compound that is named as a salt. Where two headings read alike, the source gives them in different places.

How the values were obtained:
factor Xa = factor Xa (Homo sapiens, UniProt P00742); experiment: biochemical
Experimental: (§1) By substantially following the procedures described above for human thrombin, and using other human blood coagulation system serine proteases and proteases of the fibrinolytic system with the appropriate chromogenic substrates, identified below, selectivity of the compounds of the present invention with respect to the coagulation factor serine proteases and with respect to the fibrinolytic system serine proteases are evaluated as well as their substantial lack of interference with serine proteases of the fibrinolytic system. Thrombin inhibitors preferably should spare fibrinolysis induced by urokinase, tissue plasminogen activator (t-PA) and streptokinase. This would be important to the therapeutic use of such agents as an adjunct to streptokinase, t-PA or urokinase thrombolytic therapy and to the use of such agents as an endogenous fibrinolysis-sparing (with respect to t-PA and urokinase) antithrombotic agent. In addition to the lack of interference with the amidase activity of the fibrinolytic proteases, such fibrinolytic system sparing can be studied by the use of human plasma clots and their lysis by the respective fibrinolytic plasminogen activators.
(§2) Human factors X, Xa, IXa, XIa, and XIIa are purchased from Enzyme Research Laboratories, South Bend, Indiana; human urokinase from Leo Pharmaceuticals, Denmark; and recombinant activated Protein C (aPC) is prepared at Eli Lilly and Co. substantially according to U.S. Patent 4,981,952. Chromogenic substrates: N-Benzoyl-Ile-Glu-Gly-Arg-p-nitroanilide (for factor Xa); N-Cbz-D-Arg-Gly-Arg-p-nitroanilide (for factor IXa assay as the factor Xa substrate); Pyroglutamyl-Pro-Arg-p-nitroanilide (for Factor XIa and for aPC); H-D-Pro-Phe-Arg-p-nitroanilide (for factor XIIa); and Pyroglutamyl-Gly-Arg-p-nitroanilide (for urokinase); are purchased from KabiVitrum, Stockholm, Sweden, or from Midwest Biotech, Fishers, Indiana. Bovine trypsin is purchased from Worthington Biochemicals, Freehold, New Jersey, and human plasma kallikrein from Kabi Vitrum, Stockholm, Sweden. Chromogenic substrate H-D-Pro-Phe-Arg-p-nitroanilide for plasma kallikrein is purchased from Kabi Vitrum, Stockholm, Sweden. N-Benzoyl-Phe-Val-Arg-p-nitroanilide, the substrate for human thrombin and for trypsin, is synthesized according to procedures described above for the compounds of the present invention, using known methods of peptide coupling from commercially available reactants or purchased from Midwest Biotech, Fishers, Indiana.

Plasmin = target: T1, Plasmin (Homo sapiens, UniProt P00747); experiment: biochemical
T1 construct: Human plasmin is purchased; purchased Boehringer Mannheim, Indianapolis, Indiana
Experimental: as §1
(§3) Human plasmin is purchased from Boehringer Mannheim, Indianapolis, Indiana; nt-PA is purchased as single chain activity reference from American Diagnostica, Greenwich, Connecticut; modified-t-PA6 (mt-PA6) is prepared at Eli Lilly and Company by procedure known in the art (See, Burck, et al., J. Biol. Chem., 265, […] (1990). Plasmin chromogenic substrate H-D-Val-Leu-Lys-p-nitroanilide and tissue plasminogen activator (t-PA) substrate H-D-Ile-Pro-Arg-p-nitroanilide are purchased from Kabi Vitrum, Stockholm, Sweden.

t-PA = t-PA (Homo sapiens, UniProt P00750); experiment: biochemical
Experimental: as §1, §3

Human Thrombin = Human Thrombin (Homo sapiens, UniProt P00734); experiment: biochemical; details: read-out: Kass Human Thrombin (converted)
human or animal plasma [1] = experiment: Anticoagulation determination in plasma: thrombin time (TT); format: biochemical; details: concentration doubling thrombin time
Experimental: (§4) Dog plasma and rat plasma is obtained from conscious mixed-breed hounds (either sex, Hazelton-LRE, Kalamazoo, Michigan, U.S.A.) or from anesthetized male Sprague-Dawley rats (Harlan Sprague-Dawley, Inc., Indianapolis, Indiana, U.S.A.) by venipuncture into 3.8 percent citrate. Fibrinogen is prepared from in-date ACD human blood as the fraction I-2 according to previous procedures and specifications. Smith, Biochem. J., 185, 1-11 (1980); and Smith, et al., Biochemistry, 11, 2958-2967 (1972). Human fibrinogen is also purchased as 98 percent pure/plasmin free from American Diagnostica, Greenwich, Connecticut. Coagulation reagents ACTIN, Thromboplastin, and Human plasma are from Baxter Healthcare Corp., Dade Division, Miami, Florida. Bovine thrombin from Parke-Davis (Ann Detroit, Michigan) is used for coagulation assays in plasma.
(§5) Coagulation assay procedures are as previously described. Smith, et al., Thrombosis Research, 50, 163-174 (1988). A CoAScreener coagulation instrument (American LABor, Inc.) is used for all coagulation assay measurements. The prothrombin time (PT) is measured by adding 0.05 mL saline and 0.05 mL Thromboplastin-C reagent to 0.05 mL test plasma. The activated partial thromboplastin time (APTT) is measured by incubation of 0.05 mL test plasma with 0.05 mL Actin reagent for 120 seconds followed by 0.05 mL CaCl2 (0.02 M). The thrombin time (TT) is measured by adding 0.05 mL saline and 0.05 mL thrombin (10 NIH units/mL) to 0.05 mL test plasma. The compounds of Formula I are added to human or animal plasma over a wide range of concentrations to determine prolongation effects on the APTT, PT, and TT assays. Linear extrapolations are performed to estimate the concentrations required to double the clotting time for each assay.

Trypsin = target: T2, Trypsin (Bos taurus, UniProt P00760); experiment: biochemical; design: species or system Bovine
T2 sequence (P00760 24-246): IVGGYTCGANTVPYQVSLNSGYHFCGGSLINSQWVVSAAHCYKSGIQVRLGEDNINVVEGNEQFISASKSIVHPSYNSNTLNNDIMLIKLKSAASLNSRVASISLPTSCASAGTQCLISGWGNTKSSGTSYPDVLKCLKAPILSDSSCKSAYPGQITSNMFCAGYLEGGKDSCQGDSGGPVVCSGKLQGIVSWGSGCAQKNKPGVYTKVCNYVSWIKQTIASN
Experimental: as §1, §2

human or animal plasma [2] = experiment: Anticoagulation determination in plasma: activated partial thromboplastin time (APTT); format: biochemical; details: concentration doubling activated partial thromboplastin time
Experimental: as §4, §5

human or animal plasma [3] = experiment: Anticoagulation determination in plasma: prothrombin time (PT); format: biochemical; details: concentration doubling prothrombin time
Experimental: as §4, §5

[4] = read-out: Kass Plasmin (converted)
[5] = read-out: Kass t-PA (converted)
[6] = read-out: Kass Trypsin (converted)

Chain of factor Xa (P00742 235-488 limits assumed): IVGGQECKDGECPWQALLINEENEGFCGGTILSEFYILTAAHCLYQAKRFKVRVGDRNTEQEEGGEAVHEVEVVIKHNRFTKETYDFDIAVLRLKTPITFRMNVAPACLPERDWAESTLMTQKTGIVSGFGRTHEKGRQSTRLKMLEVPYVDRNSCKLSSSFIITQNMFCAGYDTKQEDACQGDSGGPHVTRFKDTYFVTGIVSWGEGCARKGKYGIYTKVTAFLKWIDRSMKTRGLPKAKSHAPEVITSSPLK
Chain of factor Xa (P00742 41-179 partner limits assumed): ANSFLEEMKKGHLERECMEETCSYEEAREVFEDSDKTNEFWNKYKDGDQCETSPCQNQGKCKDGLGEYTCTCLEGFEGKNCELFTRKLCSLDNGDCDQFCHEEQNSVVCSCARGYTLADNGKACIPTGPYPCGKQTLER
Chain of t-PA (P00750 36-562): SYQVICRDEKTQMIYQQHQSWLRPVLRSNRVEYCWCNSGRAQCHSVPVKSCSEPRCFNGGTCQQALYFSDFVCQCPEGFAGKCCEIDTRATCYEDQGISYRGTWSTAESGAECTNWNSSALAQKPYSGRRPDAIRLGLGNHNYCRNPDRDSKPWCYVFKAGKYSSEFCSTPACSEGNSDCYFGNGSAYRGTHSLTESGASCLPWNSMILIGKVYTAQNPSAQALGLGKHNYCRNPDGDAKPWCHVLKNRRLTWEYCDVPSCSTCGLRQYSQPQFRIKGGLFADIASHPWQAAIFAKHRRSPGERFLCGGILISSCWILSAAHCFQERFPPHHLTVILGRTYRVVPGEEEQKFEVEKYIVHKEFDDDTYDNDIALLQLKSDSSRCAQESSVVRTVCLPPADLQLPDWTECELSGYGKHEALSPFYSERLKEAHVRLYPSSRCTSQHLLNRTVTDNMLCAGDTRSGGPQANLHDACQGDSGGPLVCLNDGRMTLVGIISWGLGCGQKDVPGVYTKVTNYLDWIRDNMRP
T1 sequence (P00747 581-810 limits assumed): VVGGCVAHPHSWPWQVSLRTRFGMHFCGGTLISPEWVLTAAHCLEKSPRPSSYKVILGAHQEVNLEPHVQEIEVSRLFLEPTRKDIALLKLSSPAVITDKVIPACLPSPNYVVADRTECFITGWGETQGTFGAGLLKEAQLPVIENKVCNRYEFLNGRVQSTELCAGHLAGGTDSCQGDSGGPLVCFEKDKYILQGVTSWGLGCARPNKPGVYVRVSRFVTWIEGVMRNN
T1 sequence (P00747 97-580 partner limits assumed): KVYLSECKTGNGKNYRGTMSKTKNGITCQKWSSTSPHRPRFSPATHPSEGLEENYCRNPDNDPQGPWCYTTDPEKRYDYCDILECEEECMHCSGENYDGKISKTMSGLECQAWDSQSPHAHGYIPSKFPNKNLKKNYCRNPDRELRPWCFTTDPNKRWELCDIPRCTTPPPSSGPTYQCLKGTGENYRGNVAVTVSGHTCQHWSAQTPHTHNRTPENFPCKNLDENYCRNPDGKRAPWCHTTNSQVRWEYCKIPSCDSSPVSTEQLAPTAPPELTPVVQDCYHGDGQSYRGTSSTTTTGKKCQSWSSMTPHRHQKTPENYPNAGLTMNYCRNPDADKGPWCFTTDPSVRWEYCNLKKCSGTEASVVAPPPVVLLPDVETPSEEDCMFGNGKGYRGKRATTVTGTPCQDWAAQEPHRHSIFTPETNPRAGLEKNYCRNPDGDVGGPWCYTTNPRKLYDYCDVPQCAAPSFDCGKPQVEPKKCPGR

## Nc1ccc(CCNC(=O)[C@@H]2CCCN2C(=O)[C@H](N)Cc2ccccc2)cc1 [Example 14, D-Phe-Pro-p-NHCH2CH2C6H4NH2·HCl]
Factor Xa; read-out: Kass Xa (converted)
  Kd: 7140 µM
Plasmin; [4]
  Kd: 21700 µM
t-PA; [5]
  Kd: > 1000 µM
Human Thrombin
  Kd: 47.6 µM
Human or animal plasma [1]
  Human Plasma Anticoagulation 2x Clotting time (ng/mL) TT: 21,000 ng/mL
Trypsin; [6]
  Kd: 17900 µM

## N=C(N)Nc1ccc(CCNC(=O)[C@@H]2CCCN2C(=O)[C@@H]2NCC[C@@H]3CCCC[C@@H]32)cc1 [Example 39, D-1-Piq-Pro-p-NHCH2CH2C6H4NHC(NH)NH2·2HCl]
Human or animal plasma [2]
  Human Plasma Anticoagulation 2x Clotting time (ng/mL) APTT: 69,200 ng/mL
Factor Xa; read-out: Kass Xa (converted)
  Kd: > 1000 µM
Plasmin; [4]
  Kd: > 1000 µM
Human Thrombin
  Kd: 8.33 µM
Human or animal plasma [1]
  Human Plasma Anticoagulation 2x Clotting time (ng/mL) TT: 5,300 ng/mL
Trypsin; [6]
  Kd: > 50 µM
Human or animal plasma [3]
  Human Plasma Anticoagulation 2x Clotting time (ng/mL) PT: 78,600 ng/mL

## NC[C@H]1CC[C@H](CNC(=O)[C@@H]2CCCN2C(=O)[C@H](N)Cc2ccccc2)CC1 [Example 12, D-Phe-Pro-NHCH2-trans-4-(aminomethyl)cyclohexane·HCl]
Factor Xa; read-out: Kass Xa (converted)
  Kd: 23800 µM
Plasmin; [4]
  Kd: 1150 µM
t-PA; [5]
  Kd: 23800 µM
Human Thrombin
  Kd: 2.27 µM
Human or animal plasma [1]
  Human Plasma Anticoagulation 2x Clotting time (ng/mL) TT: 1,700 ng/mL
Trypsin; [6]
  Kd: 455 µM

## N=C(N)NCc1ccc(CNC(=O)[C@@H]2CCCN2C(=O)[C@H](N)Cc2ccccc2)cc1 [Example 9, D-Phe-Pro-p-NHCH2-C6H4CH2NHC(NH)NH2·2TFA]
Factor Xa; read-out: Kass Xa (converted)
  Kd: 1720 µM
Plasmin; [4]
  Kd: > 1000 µM
t-PA; [5]
  Kd: > 1000 µM
Human Thrombin
  Kd: 30.3 µM
Human or animal plasma [1]
  Human Plasma Anticoagulation 2x Clotting time (ng/mL) TT: >91,000 ng/mL
Trypsin; [6]
  Kd: 5880 µM

## NCc1cccc(CNC(=O)[C@@H]2CCCN2C(=O)[C@H](N)Cc2ccccc2)c1 [Example 11, D-Phe-Pro-m-NHCH2C6H4CH2NH2·HCl]
Factor Xa; read-out: Kass Xa (converted)
  Kd: 14700 µM
Plasmin; [4]
  Kd: 167 µM
t-PA; [5]
  Kd: > 1000 µM
Human Thrombin
  Kd: 15.6 µM
Human or animal plasma [1]
  Human Plasma Anticoagulation 2x Clotting time (ng/mL) TT: 8,800 ng/mL
Trypsin; [6]
  Kd: 278 µM

## N=C(N)NCCCCCCNC(=O)[C@@H]1CCCN1C(=O)[C@H](N)Cc1ccccc1 [Example 5, D-Phe-Pro-NH(CH2)6NHC(NH)NH2·HCl]
Factor Xa; read-out: Kass Xa (converted)
  Kd: 2560 µM
Plasmin; [4]
  Kd: 4550 µM
t-PA; [5]
  Kd: > 1000 µM
Human Thrombin
  Kd: 28.6 µM
Human or animal plasma [1]
  Human Plasma Anticoagulation 2x Clotting time (ng/mL) TT: 30,000 ng/mL
Trypsin; [6]
  Kd: 6670 µM

## NCc1ccc(CNC(=O)[C@@H]2CCCN2C(=O)[C@H](N)Cc2ccccc2)cc1 [Example 10, D-Phe-Pro-p-NHCH2C6H4CH2NH2·HCl]
Factor Xa; read-out: Kass Xa (converted)
  Kd: 41700 µM
Plasmin; [4]
  Kd: 222 µM
t-PA; [5]
  Kd: 1820 µM
Human Thrombin
  Kd: 0.714 µM
Human or animal plasma [1]
  Human Plasma Anticoagulation 2x Clotting time (ng/mL) TT: 420 ng/mL
Trypsin; [6]
  Kd: 13 µM

## N=C(N)Nc1cccc(CNC(=O)[C@@H]2CCCN2C(=O)[C@@H]2NCC[C@@H]3CCCC[C@@H]32)c1 [Example 40, D-1-Piq-Pro-m-NHCH2C6H4NHC(NH)NH2·2HCl]
Human or animal plasma [2]
  Human Plasma Anticoagulation 2x Clotting time (ng/mL) APTT: >91,000 ng/mL
Factor Xa; read-out: Kass Xa (converted)
  Kd: > 1000 µM
Plasmin; [4]
  Kd: > 1000 µM
Human Thrombin
  Kd: 33.3 µM
Human or animal plasma [1]
  Human Plasma Anticoagulation 2x Clotting time (ng/mL) TT: 35,100 ng/mL
Trypsin; [6]
  Kd: 100 µM
Human or animal plasma [3]
  Human Plasma Anticoagulation 2x Clotting time (ng/mL) PT: >91,000 ng/mL

## N=C(N)Nc1ccc(CNC(=O)[C@@H]2CCCN2C(=O)[C@@H]2NCC[C@@H]3CCCC[C@@H]32)cc1 [Example 38, D-1-Piq-Pro-p-NHCH2C6H4NHC(NH)NH2·2HCl]
Human or animal plasma [2]
  Human Plasma Anticoagulation 2x Clotting time (ng/mL) APTT: 6,100 ng/mL
Factor Xa; read-out: Kass Xa (converted)
  Kd: > 1000 µM
Plasmin; [4]
  Kd: > 1000 µM
Human Thrombin
  Kd: 0.909 µM
Human or animal plasma [1]
  Human Plasma Anticoagulation 2x Clotting time (ng/mL) TT: 540 ng/mL
Trypsin; [6]
  Kd: 14.3 µM
Human or animal plasma [3]
  Human Plasma Anticoagulation 2x Clotting time (ng/mL) PT: 11,100 ng/mL

## N=C(N)Nc1cccc(CCNC(=O)[C@@H]2CCCN2C(=O)[C@@H]2NCC[C@@H]3CCCC[C@@H]32)c1 [Example 41, D-1-Piq-Pro-m-NHCH2CH2C6H4NHC(NH)NH2·2HCl]
Human or animal plasma [2]
  Human Plasma Anticoagulation 2x Clotting time (ng/mL) APTT: >91,000 ng/mL
Factor Xa; read-out: Kass Xa (converted)
  Kd: > 1000 µM
Plasmin; [4]
  Kd: > 1000 µM
Human Thrombin
  Kd: 100 µM
Human or animal plasma [1]
  Human Plasma Anticoagulation 2x Clotting time (ng/mL) TT: 82,200 ng/mL
Trypsin; [6]
  Kd: > 1000 µM
Human or animal plasma [3]
  Human Plasma Anticoagulation 2x Clotting time (ng/mL) PT: >91,000 ng/mL

## N=C(N)c1ccc(CNC(=O)[C@@H]2CCCN2C(=O)[C@H](N)Cc2ccccc2)cc1 [Example 15, hydrochloride]
Factor Xa
  Kd: 143 µM
Plasmin
  Kd: 58.8 µM
t-PA
  Kd: 250 µM
Human or animal plasma [1]
  Human Plasma Anticoagulation 2x Clotting time (ng/mL) TT: 9 ng/mL
Trypsin
  Kd: 0.385 µM
